Literature values in patent US20190151634A1, “TREATMENT OF EXCESSIVE MENSTRUAL BLOOD LOSS BY FEMININE SANITARY PRODUCTS MEDICATED WITH HEMOSTATIC AGENT” (ARSTAT, INC., priority 2011, published 2019).

Key:
[1] = oral, 6 g/day (EMEA review)
[2] = mouthwash, compared to placebo
[3] = locally administered, without detectable plasma drug levels
[4] = after administration of an oral tablet

NC[C@H]1CC[C@H](C(=O)O)CC1 [tranexamic acid]
risk of gastrointestinal adverse events [1]: increased
incidence of postoperative bleeding complications [2]: reduce the incidence of postoperative bleeding complications
plasma concentrations (after a mouth rinse): below 2 mcg/mL
saliva concentrations, maximum level (after a mouth rinse): above 200 mcg/mL
time saliva concentration remained at a therapeutic level (after a mouth rinse): more than two hours
drug in saliva samples [4]: not detected
mean drug plasma concentrations [4]: 7000 ng/mL

aprotinin
postoperative blood loss [3]: Reduction of the postoperative blood loss
